In patent US5306620A, “Antibodies that bind to a ligand-induced binding site on integrin and induce integrin activation” (The Scripps Research Institute, priority 1990, dated 1994):
pEC50: −log10 of the molar value. Residues, ends and D or L forms follow the SMILES beside them.

What was measured:
GPIIb-IIIa on platelets [1] = biological target: T1, GPIIb-IIIa on platelets (Homo sapiens, UniProt P05106+P08514); experiment: 125I-anti-LIBS1 binding to washed platelets with peptide ligands; conditions: peptide 0.8 mM; stimulated and unstimulated platelets
T1 construct: endogenous in cells; host or cells: platelets
Experimental: FIG. 2 illustrates anti-LIBS1 binding to platelets expressing a cryptic antigenic determinant as described in Example 5. Varied concentrations of ^125 I-anti-LIBS1 were bound at 37 C. for 30 minutes to gel-filtered platelets in the presence of no peptide (inverted triangle), 0.8 mM GRGESP (squares), 0.8 mM GRGDSP (triangles) or GRGDSP and 10 uM ADP (circles). Bound radioactivity was separated from free by spinning the platelets through a layer of sucrose.
Washed platelets were isolated as described in Example 1A, and were resuspended in 2 ml of calcium-free Tyrode's buffer (0.13 M NaCl, 0.0026 M KCl 0.002M MgCl2. 6H2 O, 5 mM Hepes, 0.012 M NaHCO3, pH 7.2) which was first treated by admixture with Chelex 100 (200-400 mesh sodium form, Bio-Rad Laboratories, Richmond, Calif.), maintained to complex any divalent cations present in the Tyrode's buffer and filtered to remove the complexed divalent cations from the buffer. The platelet suspension was then applied to a Sepharose CL2B column (40 ml total bed volume, Pharmacia, Inc., Piscataway, N.J.) equilibrated with the same Tyrode's buffer. […] The label containing immunoreaction products were then separated from non-bound ^125 I-labeled antibody by centrifugation of the platelet aliquot through a sucrose cushion as described in Example 4, and the platelet-associated radioactivity was determined as before.

[2] = biological target: T2, solubilized αIIb β3 from platelets (Homo sapiens, UniProt P05106+P08514); experiment: Solution phase assay: 125I-Fg binding to solubilized αIIb β3; format: biochemical
T2 construct: αIIb β3 was solubilized from platelets; endogenous in cells; host or cells: human platelets, octylglucoside lysate
Experimental: To determine if activating antibodies could activate αIIb β3 extracted away f rom the membrane milieu, the activating capacity to stimulate Fg binding in a solution phase was assayed. In this assay, αIIb β3 was solubilized from platelets, incubated in the presence or absence of activating monoclonal antibodies, and then bound to microtiter plates coated with a non-activating monoclonal anti β3 antibody.
The platelet pellet was resuspended and solubilized in ice cold 10 mM Hepes containing 150 mM NaCl, 50 mM octyl-B-D-glucoypyranoside (Calbiochem, La Jolla, Calif.) 1 mm PMSF, 50 ng/ml PGE, 1 mM CaCl2, 1 mM MgCl2, 50 uM leupeptin and 1 mg/ml N-ethylmaleimide (Sigma, St. Louis, Mo.) and centrifuged at 100,000 g for 30 minutes. […] The microtiter wells were incubated at 4 C. overnight, washed twice with a modified Tyrodes-Hepes buffer (2.5 mM Hepes, 150 mM NaCl, 2.5 mM KCl, 1 mM MgCl2, 12 mM NaHCO3, 5.5 mM D-glucose and 1 mg/ml BSA, pH 7.4) containing 50 MM octyl-B-D-glucopyranoside and 0.1 uM activating monoclonal antibody and then twice in Tyrodes-Hepes buffer only to form αIIb β3 -bound microtiter wells. […] Bound radioactivity was counted after 2 washes with Tyrodes-Hepes buffer.

αIIb β3 on A5 cells [3] = biological target: T3, αIIb β3 on A5 cells (Homo sapiens, UniProt P05106+P08514); experiment: Soluble 125I-fibrinogen binding to A5 cells; format: cell-based
T3 construct: expressed in transfected cells
Experimental: FIG. 4 illustrates the equilibrium binding of soluble fibrinogen (Fg) to Ab-62 stimulated (activated) A5 cells when measured as in Example 10. A5 cells at a concentration of 10^6 per ml were admixed with 6 uM of Sepharose-purified AB-62 and maintained at 22 C. for 30 minutes to activate the integrin. Iodinated Fg was then admixed in varying concentrations from 0.01 to 1 nM. After a 60 minute maintenance period, the bound ligand was separated from free ligand by centrifugation through 0.3 ml of 20% sucrose. The amount of radiolabelled ligand associated with the cell pellet was determined by gamma detection. Saturable binding was measured in three different experiments and plotted versus the input Fg concentration to obtain an averaged profile. A Scatchard replot of the binding data was made and is shown in the insert.
An independent measure of integrin activation was made by detecting the ability of a cell containing the integrin to bind soluble fibrinogen (Fg) that had been labelled with ^125 I. Fg was isolated and labelled with ^125 I by standard methods as described by Marguerie et al., J. Biol. Chem., 255:154-161 (1980) to form ^125 I-Fg. Thereafter, the binding of ^125 I-Fg to transfected cells was assayed as described previously for platelets [Marguerie et al., J. Biol. Chem., 255:154-161 (1980)]. Binding was initiated by the addition of cells to radiolabelled Fg and incubation at 37 degrees for 30 minutes. Bound ligand was separated from free ligand by centrifugation through 0.3 ml of 20% sucrose and the amount of radiolabelled ligand associated with the cell pellet determined by gamma detection.
Background binding in this assay detected about 30,000 molecules of Fg bound per integrin bearing cell, whereas maximum Ab-62 stimulated A5 cells bound about 95,000 molecules of Fg per cell.
Equilibrium binding of soluble Fg to Ab-62 stimulated (activated) A5 cells was carried out to better characterize Fg binding. […] A5 cells (10^6 per ml) were incubated with 6 uM Sepharose-purified Ab-62 for 30 minutes at 22 C. to activate the integrin. Thereafter ^125 I-Fg was admixed in varying concentrations from 0.01 to 1 nM. After 60 minutes, bound Fg was measured as described above after centrifugation of the cells through sucrose.
Saturable binding was measured in three different experiments and plotted versus the input Fg concentration to obtain average data which is shown in FIG. 4. A Scatchard replot of the binding data was also made and is shown in the inset to FIG. 4. The binding of the various concentrations of Fg to activated A5 cells at steady state was analyzed by use of the "Ligand" computer program. […] There was day to day variation in the quantity of αIIb β3 expressed as measured by the binding of the 2G12 antibody (150,000 to 440,000 sites/cell) as well as in the number of Fg receptors (138,000 to 360,000 sites/cell). The ratio of Fg receptors to αIIb β3 expressed per cell on a given day was 0.83±0.05, thus virtually all of the recombinant αIIb β3 was functional with respect to Fg binding.

αIIb β3 on A5 cells [4] = biological target: T3, αIIb β3 on A5 cells; experiment: Binding of fibrinogen-coated fluorescent beads to A5 cells; format: cell-based; conditions: 2 mM peptide
Experimental: Immobilized Fg was prepared by coating […] fluorescent latex beads (Fluoricon Fluorescent Particles, Baxter, McGraw Park, Ill.). These beads were prepared by incubating 1 mg of purified Fg with 650 ul of Fluoricon beads for 1 hour at room temperature. The beads were pelleted, resuspended in 1 ml of 30 mM Tris pH 7.4, 170 mM NaCl and 1% BSA, and stored at 4 degrees until ready for use. The binding of these particles to transfected cells was assessed by incubating 5×10^5 cells with 25 ul of beads in the presence or absence of polypeptide inhibitors for 30 minutes at room temperature. The solution was layered over a 6% BSA cushion, spun 5 minutes in a microfuge and the pelleted cells resuspended in 500 ul of Tyrodes and subjected to FACS analysis as described in Example 7.

αIIb β3 and αv β3 = experiment: Peptide ligand recognition by recombinant β3 integrins; format: binding, human
GPIIb-IIIa on platelets [5] = biological target: T1, GPIIb-IIIa on platelets; experiment: 125I-anti-LIBS1 binding to platelets in the presence of fibrinogen; conditions: ADP (10 uM) stimulated platelets, 125I-anti-LIBS1 Fab 0.8 uM, 37 C 30 minutes; read-out: concentration of fibrinogen required for a half-maximal increase in anti-LIBS1 binding
Experimental: FIG. 1 illustrates anti-LIBS1 binding to platelets in the presence of ADP-stimulated fibrinogen as described in Example 4. Gel-filtered platelets (1 ×10^8 platelets/ml) were incubated with ^125 I-labeled anti-LIBS1 and varied concentrations of fibrinogen in the presence (ADP-stimulated) or absence (Control) of ADP (10 uM) for 30 minutes at 37 C. Platelet-bound radioactivity was separated from free by centrifuging the platelets through a layer of sucrose. Results are shown as the average of triplicate determinations +/ - one standard deviation.
Platelet rich plasma (PRP) was prepared as in Example 1A and divided into 2 aliquots. In one aliquot, the platelets were stimulated to express functional GPIIb-IIIa (fibrinogen receptors) by admixture of adenosine diphosphate (ADP) to a 10 uM final concentration to produce ADP-stimulatedplatelets. As a negative control, the second aliquot of PRP received no stimulus to produce non-stimulated platelets.
^125 I-labeled LIBSA (anti-LIBS1) Fab fragments, prepared by usual techniques from the ^125 I-labeled antibodies described in Example 2, were then admixed to a 0.8 uM final concentration with several samples of each of the PRP aliquots in the presence of varying concentrations of fibrinogen. […] The amount of ^125 I-anti LIBS1 associated with the pellet was then determined by gamma counting.

T3 sequence (P08514 32-887 limits assumed): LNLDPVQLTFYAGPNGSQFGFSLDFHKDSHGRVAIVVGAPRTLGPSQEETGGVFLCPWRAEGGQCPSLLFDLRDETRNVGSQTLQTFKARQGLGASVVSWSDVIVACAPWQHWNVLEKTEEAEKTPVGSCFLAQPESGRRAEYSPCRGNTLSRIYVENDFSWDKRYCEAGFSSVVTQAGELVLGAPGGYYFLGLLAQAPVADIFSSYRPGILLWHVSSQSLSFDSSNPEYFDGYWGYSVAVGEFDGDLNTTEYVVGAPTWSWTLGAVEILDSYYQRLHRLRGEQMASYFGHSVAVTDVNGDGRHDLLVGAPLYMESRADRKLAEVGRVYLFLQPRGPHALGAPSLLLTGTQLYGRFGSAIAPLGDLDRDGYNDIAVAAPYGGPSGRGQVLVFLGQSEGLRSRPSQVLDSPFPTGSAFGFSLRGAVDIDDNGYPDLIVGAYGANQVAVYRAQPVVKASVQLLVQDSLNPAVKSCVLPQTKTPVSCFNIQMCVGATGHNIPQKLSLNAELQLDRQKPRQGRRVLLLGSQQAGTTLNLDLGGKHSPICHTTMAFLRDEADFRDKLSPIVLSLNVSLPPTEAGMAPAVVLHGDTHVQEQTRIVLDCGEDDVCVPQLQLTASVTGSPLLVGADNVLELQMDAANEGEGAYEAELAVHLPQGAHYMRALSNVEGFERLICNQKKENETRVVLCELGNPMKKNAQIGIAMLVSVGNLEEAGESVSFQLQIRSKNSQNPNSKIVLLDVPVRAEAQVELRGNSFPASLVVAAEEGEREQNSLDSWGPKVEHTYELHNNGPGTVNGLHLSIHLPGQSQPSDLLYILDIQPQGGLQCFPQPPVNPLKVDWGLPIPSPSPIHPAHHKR
T3 sequence (P08514 891-1039 partner limits assumed): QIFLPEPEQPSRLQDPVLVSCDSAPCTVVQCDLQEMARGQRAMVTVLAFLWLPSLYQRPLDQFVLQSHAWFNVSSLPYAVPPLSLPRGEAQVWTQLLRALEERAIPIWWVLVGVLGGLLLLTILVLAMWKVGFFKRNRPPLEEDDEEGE
T3 sequence (P05106 27-788): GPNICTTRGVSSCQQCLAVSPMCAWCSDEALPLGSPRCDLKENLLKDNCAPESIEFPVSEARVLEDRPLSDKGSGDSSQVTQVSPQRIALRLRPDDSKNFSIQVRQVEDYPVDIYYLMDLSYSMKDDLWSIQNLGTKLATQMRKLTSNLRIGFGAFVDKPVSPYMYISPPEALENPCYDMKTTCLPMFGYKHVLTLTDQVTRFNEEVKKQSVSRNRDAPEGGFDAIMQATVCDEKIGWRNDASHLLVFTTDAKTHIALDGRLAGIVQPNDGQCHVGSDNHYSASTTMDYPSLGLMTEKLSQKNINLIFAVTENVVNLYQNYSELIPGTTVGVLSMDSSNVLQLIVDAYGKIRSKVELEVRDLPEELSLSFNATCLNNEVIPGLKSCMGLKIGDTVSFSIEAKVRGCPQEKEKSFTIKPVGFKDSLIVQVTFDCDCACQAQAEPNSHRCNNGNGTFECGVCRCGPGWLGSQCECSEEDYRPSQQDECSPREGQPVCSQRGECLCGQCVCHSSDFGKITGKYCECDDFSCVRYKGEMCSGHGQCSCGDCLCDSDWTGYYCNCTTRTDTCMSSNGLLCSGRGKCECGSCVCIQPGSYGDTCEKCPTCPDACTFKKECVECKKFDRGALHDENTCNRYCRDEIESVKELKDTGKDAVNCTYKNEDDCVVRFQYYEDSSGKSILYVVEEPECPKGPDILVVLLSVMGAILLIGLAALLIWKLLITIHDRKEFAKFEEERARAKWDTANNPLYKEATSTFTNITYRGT
T1 sequence (P08514 32-887 limits assumed): as the sequence (P08514 32-887 limits assumed) above
T1 sequence (P08514 891-1039 partner limits assumed): as the sequence (P08514 891-1039 partner limits assumed) above
T1 sequence (P05106 27-788): as the sequence (P05106 27-788) above
T2 sequence (P08514 32-887 limits assumed): as the sequence (P08514 32-887 limits assumed) above
T2 sequence (P08514 891-1039 partner limits assumed): as the sequence (P08514 891-1039 partner limits assumed) above
T2 sequence (P05106 27-788): as the sequence (P05106 27-788) above

## N=C(N)NCCC[C@H](NC(=O)CN)C(=O)NCC(=O)N[C@@H](CC(=O)O)C(=O)N[C@@H](CO)C(=O)N1CCC[C@H]1C(=O)O [GRGDSP, Gly-Arg-Gly-Asp-Ser-Pro]
GPIIb-IIIa on platelets [1]
  induction of LIBS1 cryptic antigenic determinant on platelets by peptide ligand: will express a LIBS1 cryptic antigenic determinant
[2]
  inhibition of Fg binding to stimulated captured receptor: inhibition
αIIb β3 on A5 cells [3]
  inhibition of soluble 125I-Fg binding to activated A5 cells: inhibited
αIIb β3 on A5 cells [4]
  adherence of A5 cells to Fg-coated microspheres: inhibited

## CC(C)C[C@H](N)C(=O)NCC(=O)NCC(=O)N[C@@H](C)C(=O)N[C@@H](CCCCN)C(=O)N[C@@H](CCC(N)=O)C(=O)N[C@@H](C)C(=O)NCC(=O)N[C@@H](CC(=O)O)C(=O)N[C@H](C(=O)O)C(C)C [Mab L10, LGGAKQAGDV] (H-LGGAKQAGDV-OH)
αIIb β3 and αv β3
  recognition of peptide by αIIb β3 versus αv β3: recognized better by αIIb β3 than by αv β3

## fibrinogen
[2]
  inhibition of Fg binding to stimulated captured receptor: inhibition
αIIb β3 on A5 cells [3]; Ab-62 activated A5 cells
  non-saturable binding: 2.2±0.4×10^-3
αIIb β3 on A5 cells [3]; Ab-62 activated A5 cells, 10^6 per ml
  receptor concentration: 2.3 ± 0.3 nM
αIIb β3 on A5 cells [3]; Ab-62 activated A5 cells, Ligand program fit
  Fg binding sites per cell: 138,000 sites/cell
αIIb β3 on A5 cells [3]; Ab-62 stimulated A5 cells
  reversibility of Fg binding: > 75%
  time for Fg binding to reach steady state: ≤ 30 min
αIIb β3 on A5 cells [3]; activated A5 cells, day to day variation
  number of Fg receptors: 138,000 to 360,000 sites/cell
αIIb β3 on A5 cells [3]; on a given day
  ratio of Fg receptors to αIIb β3 expressed per cell: 0.83±0.05
GPIIb-IIIa on platelets [5]
  pEC50: ~6.15
